Results published in PubChem BioAssay (NCI).
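Results reflect a 48-hour exposure of cells in 96-well plates to compound at five concentrations. Here, GI50 denotes the concentration required for 50% inhibition of growth. TGI marks complete inhibition of growth.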

What was measured:
Assay in all cases: NCI tumour cell line growth inhibition, 48 h
HOP-92 NSCLC = test system: HOP-92 NSCLC
HL-60(TB) leukemia = test system: HL-60(TB) leukemia
ACHN renal = test system: ACHN renal
SNB-75 CNS = test system: SNB-75 CNS
SK-MEL-28 melanoma = test system: SK-MEL-28 melanoma
EKVX NSCLC = test system: EKVX NSCLC
HT29 colon = test system: HT29 colon
HCC-2998 colon = test system: HCC-2998 colon
NCI-H226 lung = test system: NCI-H226 lung
UACC-62 melanoma = test system: UACC-62 melanoma
BT-549 breast = test system: BT-549 breast
HOP-62 NSCLC = test system: HOP-62 NSCLC
M14 melanoma = test system: M14 melanoma
NCI/ADR-RES ovarian = test system: NCI/ADR-RES ovarian
RPMI-8226 leukemia = test system: RPMI-8226 leukemia
LOX IMVI melanoma = test system: LOX IMVI melanoma
SNB-19 CNS = test system: SNB-19 CNS
CAKI-1 renal = test system: CAKI-1 renal
NCI-H460 lung = test system: NCI-H460 lung
OVCAR-8 ovarian = test system: OVCAR-8 ovarian
IGROV1 ovarian = test system: IGROV1 ovarian
MDA-MB-468 breast = test system: MDA-MB-468 breast
MDA-MB-231 breast = test system: MDA-MB-231 breast
UACC-257 melanoma = test system: UACC-257 melanoma
A549 NSCLC = test system: A549 NSCLC
SF-539 CNS = test system: SF-539 CNS
K-562 leukemia = test system: K-562 leukemia
TK-10 renal = test system: TK-10 renal
SF-295 CNS = test system: SF-295 CNS
SN12C renal = test system: SN12C renal
A498 renal = test system: A498 renal
NCI-H23 lung = test system: NCI-H23 lung
SF-268 CNS = test system: SF-268 CNS
MALME-3M melanoma = test system: MALME-3M melanoma
T-47D breast = test system: T-47D breast
CCRF-CEM leukemia = test system: CCRF-CEM leukemia
KM12 colon = test system: KM12 colon
HS 578T breast = test system: HS 578T breast
U251 CNS = test system: U251 CNS
COLO 205 colon = test system: COLO 205 colon
MDA-MB-435 = test system: MDA-MB-435
HCT-15 colon = test system: HCT-15 colon
NCI-H522 lung = test system: NCI-H522 lung
786-0 renal = test system: 786-0 renal
SK-MEL-2 melanoma = test system: SK-MEL-2 melanoma
RXF 393 renal = test system: RXF 393 renal
MCF7 breast = test system: MCF7 breast
DU-145 prostate = test system: DU-145 prostate
UO-31 renal = test system: UO-31 renal
SK-MEL-5 melanoma = test system: SK-MEL-5 melanoma
MOLT-4 leukemia = test system: MOLT-4 leukemia
HCT-116 colon = test system: HCT-116 colon
SW-620 colon = test system: SW-620 colon
OVCAR-4 ovarian = test system: OVCAR-4 ovarian
SR leukemia = test system: SR leukemia
PC-3 prostate = test system: PC-3 prostate
OVCAR-3 ovarian = test system: OVCAR-3 ovarian
OVCAR-5 ovarian = test system: OVCAR-5 ovarian
SK-OV-3 ovarian = test system: SK-OV-3 ovarian

**Q.** What does the source list for `O=C(NNC(=S)NC(=O)c1ccccc1)c1ccc(OCc2nc3ccc(Cl)cc3[nH]2)cc1`?
**A.** GI50 (HOP-92 NSCLC): 2.18 µM; TGI (HOP-92 NSCLC): 6.26 µM; GI50 (HL-60(TB) leukemia): 2.22 µM; TGI (HL-60(TB) leukemia): 7.24 µM; GI50 (ACHN renal): 2.04 µM; TGI (ACHN renal): 5.82 µM; GI50 (SNB-75 CNS): 1.48 µM; TGI (SNB-75 CNS): 4.78 µM; GI50 (SK-MEL-28 melanoma): 1.65 µM; TGI (SK-MEL-28 melanoma): 3.23 µM; GI50 (EKVX NSCLC): 2.12 µM; TGI (EKVX NSCLC): 5.75 µM; GI50 (HT29 colon): 3.45 µM; TGI (HT29 colon): 13.7 µM; GI50 (HCC-2998 colon): 1.68 µM; TGI (HCC-2998 colon): 3.35 µM; GI50 (NCI-H226 lung): 2.02 µM; TGI (NCI-H226 lung): 7.82 µM; GI50 (UACC-62 melanoma): 1.67 µM; TGI (UACC-62 melanoma): 3.11 µM; GI50 (BT-549 breast): 1.54 µM; TGI (BT-549 breast): 3.14 µM; GI50 (HOP-62 NSCLC): 1.76 µM; TGI (HOP-62 NSCLC): 3.56 µM; GI50 (M14 melanoma): 1.55 µM; TGI (M14 melanoma): 3.79 µM; GI50 (NCI/ADR-RES ovarian): 0.396 µM; TGI (NCI/ADR-RES ovarian): 2.55 µM; GI50 (RPMI-8226 leukemia): 2.83 µM; TGI (RPMI-8226 leukemia): 21.6 µM; GI50 (LOX IMVI melanoma): 1.26 µM; TGI (LOX IMVI melanoma): 2.64 µM; GI50 (SNB-19 CNS): 2.1 µM; TGI (SNB-19 CNS): 6.68 µM; GI50 (CAKI-1 renal): 2.48 µM; TGI (CAKI-1 renal): 9.45 µM; GI50 (NCI-H460 lung): 1.26 µM; TGI (NCI-H460 lung): 3.6 µM; GI50 (OVCAR-8 ovarian): 2.1 µM; TGI (OVCAR-8 ovarian): 5.07 µM; GI50 (IGROV1 ovarian): 2.18 µM; TGI (IGROV1 ovarian): 5.33 µM; GI50 (MDA-MB-468 breast): 2.52 µM; TGI (MDA-MB-468 breast): 9.45 µM; GI50 (MDA-MB-231 breast): 1.71 µM; TGI (MDA-MB-231 breast): 3.37 µM; GI50 (UACC-257 melanoma): 2.85 µM; TGI (UACC-257 melanoma): 10.5 µM; GI50 (A549 NSCLC): 1.99 µM; TGI (A549 NSCLC): 4.49 µM; GI50 (SF-539 CNS): 1.76 µM; TGI (SF-539 CNS): 3.23 µM; GI50 (K-562 leukemia): 2.79 µM; TGI (K-562 leukemia): > 100 µM; GI50 (TK-10 renal): 4.49 µM; TGI (TK-10 renal): 21.2 µM; GI50 (SF-295 CNS): 1.27 µM; TGI (SF-295 CNS): 2.98 µM; GI50 (SN12C renal): 1.57 µM; TGI (SN12C renal): 3.16 µM; GI50 (A498 renal): 1.6 µM; TGI (A498 renal): 4.39 µM; GI50 (NCI-H23 lung): 1.78 µM; TGI (NCI-H23 lung): 3.7 µM; GI50 (SF-268 CNS): 2.42 µM; TGI (SF-268 CNS): 12 µM; GI50 (MALME-3M melanoma): 1.53 µM; TGI (MALME-3M melanoma): 3.08 µM; GI50 (T-47D breast): 3.12 µM; TGI (T-47D breast): 18.6 µM; GI50 (CCRF-CEM leukemia): 1.44 µM; TGI (CCRF-CEM leukemia): 10.5 µM; GI50 (KM12 colon): 1.89 µM; TGI (KM12 colon): 4.11 µM; GI50 (HS 578T breast): 2.17 µM; TGI (HS 578T breast): 7.3 µM; GI50 (U251 CNS): 1.71 µM; TGI (U251 CNS): 3.46 µM; GI50 (COLO 205 colon): 2.66 µM; TGI (COLO 205 colon): 9.34 µM; GI50 (MDA-MB-435): 1.81 µM; TGI (MDA-MB-435): 4.37 µM; GI50 (HCT-15 colon): 0.567 µM; TGI (HCT-15 colon): 2.13 µM; GI50 (NCI-H522 lung): 3.3 µM; TGI (NCI-H522 lung): 13.4 µM; GI50 (786-0 renal): 2.05 µM; TGI (786-0 renal): 6.12 µM; GI50 (SK-MEL-2 melanoma): 2.08 µM; TGI (SK-MEL-2 melanoma): 4.95 µM; GI50 (RXF 393 renal): 2.32 µM; TGI (RXF 393 renal): 6.67 µM; GI50 (MCF7 breast): 2.91 µM; TGI (MCF7 breast): 17.7 µM; GI50 (DU-145 prostate): 3.02 µM; TGI (DU-145 prostate): 15.3 µM; GI50 (UO-31 renal): 1.39 µM; TGI (UO-31 renal): 4.11 µM; GI50 (SK-MEL-5 melanoma): 1.78 µM; TGI (SK-MEL-5 melanoma): 3.93 µM; GI50 (MOLT-4 leukemia): 2.22 µM; TGI (MOLT-4 leukemia): 10.2 µM; GI50 (HCT-116 colon): 1.52 µM; TGI (HCT-116 colon): 3.51 µM; GI50 (SW-620 colon): 1.99 µM; TGI (SW-620 colon): 4.55 µM; GI50 (OVCAR-4 ovarian): 2.34 µM; TGI (OVCAR-4 ovarian): 14.8 µM; GI50 (SR leukemia): 2.52 µM; TGI (SR leukemia): 11.7 µM; GI50 (PC-3 prostate): 1.79 µM; TGI (PC-3 prostate): 4.96 µM; GI50 (OVCAR-3 ovarian): 1.85 µM; TGI (OVCAR-3 ovarian): 4.55 µM; GI50 (OVCAR-5 ovarian): 1.8 µM; TGI (OVCAR-5 ovarian): 3.93 µM; GI50 (SK-OV-3 ovarian): 2.05 µM; TGI (SK-OV-3 ovarian): 4.89 µM
